Results as given in publication PMC7038073, “Substituted Piperazines as Novel Potential Radioprotective Agents” (Molecules, 2020).
“Also recorded” adds a separate entry of the source. Counter-ions that a name gives are not always drawn.

Tests used:
[1] = WST-1 cytotoxicity test, MOLT-4; type: cell-based; conditions: human, MOLT-4 cells, 48 h, WST-1, mean ± SD of three experiments, read-out: relative viability (%) compared to untreated control; for viability at 48 h, 10 µM: MOLT-4, 10 µM; for viability at 48 h, 100 µM: MOLT-4, 100 µM
Procedure: (§1) In this study, the cytotoxic effects of nine new compounds (2, 3, 4, 5, 6, 7, 8, 9, 10) were tested on 10 human cell lines (nine cancer and one non-cancer cell line). The cell lines were treated with each compound at concentrations of 10 µM and 100 µM for 48 h. The proliferation capacity of the treated cells was determined by WST-1 test and compared against the proliferation rate of the untreated control cells (100%).
(§2) The cell lines Jurkat, MOLT-4, A2780, A549, HT-29, PANC-1, HeLa, MCF-7, SAOS-2, and MRC-5 (all purchased from Sigma Aldrich, Czech Republic) were included in this study. All cell lines were maintained according to the provider’s guidelines, and plated and treated in 96-well plates (500 to 30 × 10^3 cells per well). The tested compounds 2, 3, 4, 5, 6, 7, 8, 9, and 10 were dissolved in 0.1% DMSO and kept in 10 mM stock solutions. Before use, the stock solution was diluted in culture media at ratios of 1:100 and 1:1000. The studied cell lines were treated with the compounds 2, 3, 4, 5, 6, 7, 8, 9, and 10 at concentrations of 10 and 100 µM for 48 h. Control cells were tested in culture media with and without DMSO (0.1%). The cells were also treated with 1 µM doxorubicin as a cytotoxicity control.
(§3) The WST-1 (2-(4-iodophenyl)-3-(4-nitrophenyl)-5-(2,4-disulfophenyl)-2H-tetrazolium, monosodium salt) test (Roche, Mannheim, Germany) was used according to the manufacturer’s protocol to determine cell viability in all 10 cell lines 48 h after treatment with the tested compounds. The cells were analyzed in a Tecan Infinite M200 spectrometer (Tecan Group, Männedorf, Switzerland) at 440 nm.

[2] = WST-1 cytotoxicity test, MCF-7; type: cell-based; conditions: human, MCF-7 cells, 48 h, WST-1, mean ± SD of three experiments, read-out: relative viability (%) compared to untreated control; for viability at 48 h, 10 µM: MCF-7, 10 µM; for viability at 48 h, 100 µM: MCF-7, 100 µM
Procedure: as §1, §2, §3

[3] = WST-1 cytotoxicity test, A2780; type: cell-based; conditions: human, A2780 cells, 48 h, WST-1, mean ± SD of three experiments, read-out: relative viability (%) compared to untreated control; for viability at 48 h, 10 µM: A2780, 10 µM; for viability at 48 h, 100 µM: A2780, 100 µM
Procedure: as §1, §2, §3

[4] = tested on: MOLT-4 cells; experiment: Radioprotection in vitro, Annexin V/PI flow cytometry after irradiation; type: cell-based, human; conditions: 60-min pre-treatment, 1 Gy; for viability at 100 µM: Homo sapiens, MOLT-4, light or radiation study, 24 h following irradiation, irradiated untreated 40%, non-irradiated control 92%, read-out: percentage of viable MOLT-4 cells (Annexin V and PI negative) after irradiation; for radioprotective effect in vitro (in words): 100 μM, MOLT-4
Excerpt: Phosphatidylserine, a major component of the inner leaflet of the cytoplasmic membrane bilayers, is frequently used as an indicator of cell death. The externalization of this phospholipid can be detected through Annexin V, which binds to phosphatidylserine in the presence of calcium. Cell viability was quantified by Annexin V-Alexa Fluor® 488/propidium iodide (PI) staining and flow cytometry analysis to determine whether the tested compounds could prevent radiation-induced cell death in MOLT-4 cells. The percentage of viable cells was 92% for non-irradiated control (0.1% DMSO vehicle) and 40% for untreated irradiated cells (1 Gy) (Figure 2A).
Fresh 50 mM stock solutions of the compounds were prepared in DMSO (Sigma-Aldrich, St. Louis, MO, USA) before use in the study. For the radioprotection experiments, MOLT-4 cells were treated with 100 μM solutions of the novel compounds and irradiated after 60 min with a ^60Co γ-ray source (Chisotron Chirana, Prague, Czech Republic). The non-irradiated and irradiated control cells were treated with DMSO vehicle only (0.1%) and handled in parallel with the experimental cells. Non-irradiated control cells were handled in the same manner. Cell viability was determined by flow cytometry using an Alexa Fluor® 488 Annexin V/Dead Cell Apoptosis kit (Life Technologies, Grand Island, NY, USA) according to the manufacturer’s instructions. The Alexa Fluor® 488 Annexin V/Dead Cell Apoptosis kit employs the property of Alexa Fluor® 488 conjugated to Annexin V to bind to phosphatidylserine in the presence of Ca^2+, and the property of propidium iodide (PI) to enter cells with damaged cell membranes and bind to DNA. Measurement was performed using a CyAn (Beckman Coulter, Miami, FL, USA) flow cytometer. Listmode data was analyzed with the Kaluza Analysis v1.3 software (Beckman Coulter, Miami, FL, USA).

[5] = WST-1 cytotoxicity test, A549; type: cell-based; conditions: human, A549 cells, 48 h, WST-1, mean ± SD of three experiments, read-out: relative viability (%) compared to untreated control; for viability at 48 h, 10 µM: A549, 10 µM; for viability at 48 h, 100 µM: A549, 100 µM
Procedure: as §1, §2, §3

[6] = WST-1 cytotoxicity test, SAOS-2; type: cell-based; conditions: human, SAOS-2 cells, 48 h, WST-1, mean ± SD of three experiments, read-out: relative viability (%) compared to untreated control; for viability at 48 h, 10 µM: SAOS-2, 10 µM; for viability at 48 h, 100 µM: SAOS-2, 100 µM
Procedure: as §1, §2, §3

[7] = WST-1 cytotoxicity test, PANC-1; type: cell-based; conditions: human, PANC-1 cells, 48 h, WST-1, mean ± SD of three experiments, read-out: relative viability (%) compared to untreated control; for viability at 48 h, 10 µM: PANC-1, 10 µM; for viability at 48 h, 100 µM: PANC-1, 100 µM
Procedure: as §1, §2, §3

[8] = tested on: 10 human cell lines (nine cancer and one non-cancer cell line); experiment: WST-1 cytotoxicity test, statements over all cell lines; type: cell-based; conditions: 100 µM, 48 h, studied cell lines
Procedure: as §1, §2, §3

[9] = Solubility (in words); type: physicochemical
[10] = WST-1 cytotoxicity test, HeLa; type: cell-based; conditions: human, HeLa cells, 48 h, WST-1, mean ± SD of three experiments, read-out: relative viability (%) compared to untreated control
Procedure: as §1, §2, §3

SMILES | viability at 48 h, 10 µM [1] [%] | viability at 48 h, 100 µM [1] [%] | viability at 48 h, 10 µM [2] [%] | viability at 48 h, 100 µM [2] [%] | viability at 48 h, 10 µM [3] [%] | viability at 48 h, 100 µM [3] [%] | viability at 100 µM [4] [%] | viability at 48 h, 10 µM [5] [%] | viability at 48 h, 100 µM [5] [%] | viability at 48 h, 10 µM [6] [%] | viability at 48 h, 100 µM [6] [%] | viability at 48 h, 10 µM [7] [%] | viability at 48 h, 100 µM [7] [%] | cytotoxic effect (in words) [8] | solubility (in words) [9] | viability at 48 h, 10 µM [10] [%] | viability at 48 h, 100 µM [10] [%] | radioprotective effect in vitro (in words) [4]
OCCN1CCN(CC(O)CN2CCN(CCO)CC2)CC1 [Compound 8, 1.3-bis [4-(2-hydroxyethyl)piperazin-1-yl)propan-2-ol tetrahydrochloride] | 106 ± 8 | 81 ± 6 | 101 ± 5 | 96 ± 7 | 104 ± 4 | 76 ± 10 | 57 | 97 ± 5 | 111 ± 11 | 102 ± 6 | 87 ± 7 | 98 ± 9 | 117 ± 11 | no significant cytotoxic effects | excellently soluble in media | 103 ± 4 | 100 ± 18 | –
Cl.Cl.Cl.OCCN1CCN(CCCNc2cccc3ccccc23)CC1 [Compound 6, 2-(4-(3-(naphthalen-1-ylamino)propyl)piperazin-1-yl)ethanol trihydrochloride] | 90 ± 7 | 112 ± 4 | 102 ± 8 | 94 ± 9 | 74 ± 3 | 95 ± 4 | 69 | 103 ± 7 | 93 ± 3 | 94 ± 6 | 111 ± 4 | 92 ± 11 | 111 ± 5 | no significant cytotoxic effects | – | 108 ± 6 | 104 ± 7 | –
Cl.Cl.Cl.OCCN1CCN(CCCNc2ccccc2)CC1 [Compound 5, 2-(4-(3-(phenylamino)propyl)piperazin-1-yl)ethanol trihydrochloride] | 93 ± 9 | 104 ± 7 | 101 ± 6 | 106 ± 1 | 93 ± 5 | 105 ± 8 | 59 | 86 ± 7 | 104 ± 8 | 96 ± 4 | 111 ± 6 | 86 ± 16 | 115 ± 7 | no significant cytotoxic effects | – | 100 ± 4 | 116 ± 10 | did not show statistically significant radioprotective effect
Cl.Cl.OC(CNc1ccccc1)CNc1ccccc1 [Compound 9, 1,3-bis(phenylamino)propan-2-ol dihydrochloride] | 103 ± 8 | 71 ± 4 | 100 ± 4 | 98 ± 11 | 90 ± 3 | 64 ± 5 | 34 | 107 ± 11 | 98 ± 13 | 106 ± 2 | 90 ± 4 | 93 ± 12 | 118 ± 5 | no significant cytotoxic effects | low solubility; also recorded: insufficiently soluble for necessary concentrations | 99 ± 9 | 90 ± 14 | no significant radioprotective effect
Cc1cc(OCC(O)CN2CCN(CCO)CC2)ccc1Cl.Cl.Cl (centres unmarked) [Compound 4, 1-(4-chloro-3-methylphenoxy)-3-(4-(2-hydroxyethyl)piperazin-1-yl)propan-2-ol dihydrochloride] | 88 ± 6 | 92 ± 6 | 105 ± 4 | 90 ± 3 | 98 ± 2 | 89 ± 1 | 61 | 100 ± 4 | 99 | 99 ± 6 | 88 ± 4 | 97 ± 7 | 111 ± 24 | no significant cytotoxic effects | – | 106 ± 2 | 137 ± 5 | –
Cl.Cl.Cl.OCCN1CCN(CC(O)CNc2ccccc2)CC1 (centres unmarked) [Compound 10, 1-(phenylamino]-3-[4-(2-hydroxyethyl)piperazin-1-yl)propan-2-ol trihydrochloride] | 112 ± 6 | 100 ± 4 | 98 ± 2 | 96 ± 6 | 103 ± 6 | 96 ± 2 | 51 | 105 ± 9 | 105 ± 2 | 97 ± 6 | 102 ± 2 | 95 ± 7 | 111 ± 6 | no significant cytotoxic effects | – | 110 ± 7 | 121 ± 3 | –
COc1ccc(NCCCN2CCN(CCO)CC2)cc1.Cl.Cl.Cl [Compound 7, 2-(4-(3-((4-methoxyphenyl)amino)propyl)piperazin-1-yl)ethanol trihydrochloride] | 93 ± 3 | 99 ± 3 | 105 ± 6 | 104 ± 6 | 94 ± 3 | 91 ± 2 | 64 | 95 ± 5 | 115 | 102 ± 7 | 109 ± 2 | 99 ± 10 | 116 ± 3 | no significant cytotoxic effects | – | 96 ± 8 | 132 ± 3 | –
